From ChEMBL document CHEMBL1201862, “PubChem BioAssay data set” (2004)
Active and inactive are the calls of the source.

Key:
[1] = molecular target: T1, High affinity choline transporter 1 (Homo sapiens, UniProt Q9GZV3); assay: human choline transporter blockers, potency – cell-based, 5-point CRC, membrane potential dye, dose response (AID 504840); type: functional
T1 sequence (Q9GZV3 whole entry): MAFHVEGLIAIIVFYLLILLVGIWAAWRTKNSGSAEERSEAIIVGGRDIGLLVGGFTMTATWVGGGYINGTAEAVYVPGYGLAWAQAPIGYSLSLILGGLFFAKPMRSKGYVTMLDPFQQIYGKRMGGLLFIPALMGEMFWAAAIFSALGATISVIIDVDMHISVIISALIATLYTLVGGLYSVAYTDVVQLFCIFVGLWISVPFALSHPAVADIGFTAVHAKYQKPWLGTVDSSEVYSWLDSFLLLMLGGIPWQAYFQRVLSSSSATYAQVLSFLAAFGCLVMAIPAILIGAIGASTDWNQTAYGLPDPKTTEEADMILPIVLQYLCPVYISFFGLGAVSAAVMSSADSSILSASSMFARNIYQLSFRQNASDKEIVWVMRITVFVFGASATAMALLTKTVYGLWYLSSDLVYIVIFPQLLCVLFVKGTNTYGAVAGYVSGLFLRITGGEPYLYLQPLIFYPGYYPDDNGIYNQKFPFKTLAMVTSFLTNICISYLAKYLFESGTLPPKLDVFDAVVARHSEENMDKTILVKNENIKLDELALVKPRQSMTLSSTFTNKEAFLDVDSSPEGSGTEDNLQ

[2] = molecular target: T2, Calpain-2 catalytic subunit (Sus scrofa, UniProt P43367); assay: m-calpain protease blockers, concentration series – biochemical, fluorogenic peptide substrate, dose response (AID 1420); type: functional
T2 sequence (P43367 whole entry): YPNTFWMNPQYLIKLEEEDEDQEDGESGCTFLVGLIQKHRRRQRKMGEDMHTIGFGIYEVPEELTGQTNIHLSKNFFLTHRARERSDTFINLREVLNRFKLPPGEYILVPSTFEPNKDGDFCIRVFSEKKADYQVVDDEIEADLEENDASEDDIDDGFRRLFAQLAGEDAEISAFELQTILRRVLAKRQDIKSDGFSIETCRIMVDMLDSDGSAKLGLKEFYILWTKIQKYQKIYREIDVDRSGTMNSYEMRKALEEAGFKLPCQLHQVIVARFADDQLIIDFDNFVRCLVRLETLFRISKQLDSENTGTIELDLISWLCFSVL

[3] = molecular target: Induced myeloid leukemia cell differentiation protein Mcl-1 (Homo sapiens, UniProt Q07820); type: functional
[4] = tested on: BJ; assay: cells; type: functional, cell-based; conditions: Homo sapiens
[5] = tested on: BJ; assay: BJ-TERT fibroblast viability loss – cell-based, RAS-independent, luminescence, dose response (AID 1933); type: functional; conditions: Homo sapiens
[6] = DRD fibroblast viability loss – cell-based, non-viral oncogenic, luminescence, dose response (AID 1934); type: functional; conditions: Homo sapiens
[7] = tested on: P388/ADR; assay: cells; type: functional; conditions: Mus musculus
[8] = tested on: BJ; assay: BJ-TERT-LT-ST fibroblast viability loss – cell-based, RAS-independent, luminescence, dose response (AID 1935); type: functional; conditions: Homo sapiens;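 also: BJ fibroblasts immortalized with TERT plus LT and ST oncogenes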
[9] = tested on: INS1; assay: INS-1E survival protection against cytokine death – cell-based, luminescence, retest, dose response (AID 449756); type: functional; conditions: Rattus norvegicus;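 also: cell death triggered by IL-1 beta plus TNF-alpha plus IFN-gamma mixture; protective hits raise ATP signal compared with cytokine alone wells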
[10] = tested on: P388; assay: cells; type: functional; conditions: Mus musculus
[11] = tested on: SN12K1; assay: cells; type: functional; conditions: Homo sapiens
[12] = molecular target: T3, Short transient receptor potential channel 4 (Mus musculus, UniProt Q9QUQ5); assay: calcium entry via TRPC4 opening agents – cell-based, HEK293 TRPC4/mu-opioid, Fluo-4 calcium, dose response (AID 434937); type: functional
T3 sequence (Q9QUQ5 whole entry): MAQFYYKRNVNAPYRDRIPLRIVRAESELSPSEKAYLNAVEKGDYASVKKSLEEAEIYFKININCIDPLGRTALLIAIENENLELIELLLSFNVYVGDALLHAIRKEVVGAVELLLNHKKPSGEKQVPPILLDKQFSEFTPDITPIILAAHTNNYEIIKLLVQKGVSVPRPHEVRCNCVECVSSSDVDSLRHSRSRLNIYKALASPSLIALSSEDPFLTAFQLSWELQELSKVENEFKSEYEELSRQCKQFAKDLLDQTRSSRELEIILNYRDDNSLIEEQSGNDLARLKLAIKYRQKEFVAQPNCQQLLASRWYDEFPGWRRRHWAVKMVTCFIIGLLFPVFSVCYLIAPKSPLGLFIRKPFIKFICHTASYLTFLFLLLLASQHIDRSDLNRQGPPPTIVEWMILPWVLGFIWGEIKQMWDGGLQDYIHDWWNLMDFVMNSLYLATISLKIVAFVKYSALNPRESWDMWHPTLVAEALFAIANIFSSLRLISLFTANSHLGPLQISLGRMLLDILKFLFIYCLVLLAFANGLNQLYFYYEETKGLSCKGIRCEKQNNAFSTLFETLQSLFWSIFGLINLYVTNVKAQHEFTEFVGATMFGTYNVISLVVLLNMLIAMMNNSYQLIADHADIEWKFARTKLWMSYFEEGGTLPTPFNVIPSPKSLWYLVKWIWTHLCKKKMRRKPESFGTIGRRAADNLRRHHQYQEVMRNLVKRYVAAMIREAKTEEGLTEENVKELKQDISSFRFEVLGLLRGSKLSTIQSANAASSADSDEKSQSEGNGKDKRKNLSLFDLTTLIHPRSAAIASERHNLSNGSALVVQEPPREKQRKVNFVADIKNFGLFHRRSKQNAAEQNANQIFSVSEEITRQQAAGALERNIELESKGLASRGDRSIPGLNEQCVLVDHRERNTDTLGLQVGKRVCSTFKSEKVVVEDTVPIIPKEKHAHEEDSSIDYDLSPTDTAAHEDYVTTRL

[13] = cells; type: functional, cell-based
[14] = cells; type: functional, cell-based; remark: listed apart in the source
[15] = blockers of HIV-1 envelope-mediated cell-cell fusion – cherry-pick, dose response (AID 652057); type: functional, cell-based
[16] = HIV-1 AD8 envelope cell-cell fusion blockers – cherry-pick, dose response (AID 652062); type: functional, cell-based;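 also: luciferase signal from cell-cell fusion driven by HIV-1 clade B AD8 Env; potency is for inhibitors of fusion seen as a drop in luminescence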
[17] = Luminescence Cell-Based Dose Retest to Confirm Inhibitors of Cancer Stem Cells. [Related pubchem assays (depositor defined):AID2717, AID2721]; type: functional; conditions: Homo sapiens
[18] = tested on: BJ; assay: growth inhibition of engineered Ras-driven BJ cells – cell-based, alamar blue fluorescence, cherrypicked samples, dose response (AID 2631); type: functional; conditions: Homo sapiens;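 also: confirmatory dose-response assay in RAS-dependent BJ fibroblasts engineered with TERT, LT and ST, with cytotoxicity read by fluorescence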
[19] = molecular target: Cytochrome P450 2C9 (Homo sapiens, UniProt P11712)
[20] = non-specific 3'UTR reporter inhibition in Clone20-Shn3RL – cell-based, Renilla luciferase, cherry-picked, counter-screen for Shn3 inhibitor project, dose response (AID 624133); type: functional
[21] = reduction of Shn3 3'UTR-driven luciferase in osteoblasts – cell-based, Clone20 osteoblasts, firefly luciferase, cherry-picked, dose response (AID 624132); type: functional;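 also: firefly luciferase luminescence from reporter carrying the Shn3 3'UTR in osteoblasts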

Sequence of Induced myeloid leukemia cell differentiation protein Mcl-1 (Q07820 whole entry): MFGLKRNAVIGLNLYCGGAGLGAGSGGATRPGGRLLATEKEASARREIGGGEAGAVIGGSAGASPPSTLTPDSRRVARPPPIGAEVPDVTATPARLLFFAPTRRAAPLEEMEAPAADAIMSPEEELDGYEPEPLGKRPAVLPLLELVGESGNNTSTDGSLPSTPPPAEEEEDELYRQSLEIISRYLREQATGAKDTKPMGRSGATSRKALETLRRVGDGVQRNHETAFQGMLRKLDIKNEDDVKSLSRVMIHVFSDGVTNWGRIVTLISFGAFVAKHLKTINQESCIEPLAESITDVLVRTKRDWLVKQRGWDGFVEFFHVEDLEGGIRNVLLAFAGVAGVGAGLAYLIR
Sequence of Cytochrome P450 2C9 (P11712 whole entry): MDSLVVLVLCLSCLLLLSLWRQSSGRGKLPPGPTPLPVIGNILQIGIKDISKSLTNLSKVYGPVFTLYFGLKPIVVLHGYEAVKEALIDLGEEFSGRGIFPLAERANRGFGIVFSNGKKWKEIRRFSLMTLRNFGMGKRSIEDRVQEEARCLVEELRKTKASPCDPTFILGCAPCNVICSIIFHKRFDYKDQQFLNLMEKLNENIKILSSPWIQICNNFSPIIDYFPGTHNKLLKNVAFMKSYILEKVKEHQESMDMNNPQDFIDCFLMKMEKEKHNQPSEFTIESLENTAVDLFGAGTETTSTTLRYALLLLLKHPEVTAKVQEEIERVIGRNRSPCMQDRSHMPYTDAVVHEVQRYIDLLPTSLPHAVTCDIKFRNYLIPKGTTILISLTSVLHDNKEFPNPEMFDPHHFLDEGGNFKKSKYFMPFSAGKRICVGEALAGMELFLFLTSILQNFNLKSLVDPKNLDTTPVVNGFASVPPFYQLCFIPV

**Q.** With `O=C(Nc1nc2ccc(S(=O)(=O)N3CCCCC3)cc2s1)c1cccnc1` as the compound, how does the IC50 [1] read?
**A.** The IC50 was 13.2 µM (active).

**Q.** With `Cc1ccc(CNC(=O)c2ccc3c(=O)[nH]c4c(C(=O)NCC5CCCO5)sc(=S)n4c3c2)cc1` (stereo not given) as the compound, how does the IC50 [2] read?
**A.** Its IC50 is 5.68 µM (active).

**Q.** What about the IC50 [3] of the same compound?
**A.** Its IC50 is 6.74 µM (active).

**Q.** Which EC50 [4] does the source give for `CC1(C)N=C(N)N=C(N)N1c1ccc(OCCCOc2ccccc2)c(Cl)c1` here?
**A.** The EC50 was < 0.12 µM (active).

**Q.** What about the EC50 [5] of the same compound?
**A.** The EC50 was 23.8 µM (active).

**Q.** And the EC50 [6]?
**A.** The EC50 was 0.174 µM (inconclusive).

**Q.** And the GI50 [7]?
**A.** Its GI50 is 1.39 µM (inactive).

**Q.** And the EC50 [8]?
**A.** Its EC50 is > 150 µM (not active).

**Q.** And the AC50 [9]?
**A.** Its AC50 is 5.88 µM (active).

**Q.** And the GI50 [10]?
**A.** Its GI50 is < 0.01 µM (active).

**Q.** And the GI50 [11]?
**A.** The GI50 was 0.0289 µM (active).

**Q.** Which IC50 [3] does the source give for `O=C(Nc1ccc(N2CCCC2)cc1)c1ccc(Br)o1` here?
**A.** The IC50 was 0.932 µM (active).

**Q.** Which IC50 [1] does the source give for `O=C1NC(=S)S/C1=C\c1coc2ccccc2c1=O` here?
**A.** Its IC50 is 14.5 µM (active).

**Q.** For `O=C1OC(c2ccc([N+](=O)[O-])cc2)=N/C1=C/N1CC2CC(C1)c1cccc(=O)n1C2` (stereo not given), which EC50 [12] is on record?
**A.** Its EC50 is 10.6 µM (active).

**Q.** With `COc1ccc(-c2nc3ccc(C(=O)NCCCN4CCOCC4)cc3nc2-c2ccc(OC)cc2)cc1` as the compound, how does the IC50 [1] read?
**A.** Its IC50 is 13.2 µM (active).

**Q.** Which results are given for `NN=C(S)NCCc1ccccc1`?
**A.** IC50 [13]: > 29.9 µM (inactive); EC50 [14]: > 29.9 µM (inactive)

**Q.** With `NC(=O)CC(NC(=O)Cc1ccc(Cl)cc1)c1ccc(NCCc2ccccc2F)c([N+](=O)[O-])c1` (stereo not given) as the compound, how does the IC50 [13] read?
**A.** Its IC50 is > 29.9 µM (inactive).

**Q.** And the EC50 [14]?
**A.** The EC50 was > 29.9 µM (inactive).

**Q.** Which AC50 [15] does the source give for `Clc1ccc(-c2noc(CSc3nnc(-c4ccncc4)n3-c3ccccc3)n2)cc1` here?
**A.** The AC50 was 25 µM (active).

**Q.** And the AC50 [16]?
**A.** Its AC50 is 4.51 µM (active).

**Q.** For `CCC(NCCc1c[nH]c2ccccc12)=C1C(=O)N(C)C(=O)N(C)C1=O`, which AC50 [16] is on record?
**A.** Its AC50 is 17.6 µM (active).

**Q.** Which EC50 [4] does the source give for `COc1ccccc1/C=C1\SC(=S)N(CCC(=O)NCCCn2ccnc2)C1=O` here?
**A.** Its EC50 is > 150 µM (not active).

**Q.** What about the EC50 [5] of the same compound?
**A.** The EC50 was > 150 µM (not active).

**Q.** And the EC50 [6]?
**A.** The EC50 was > 150 µM (not active).

**Q.** What about the AC50 [17] of the same compound?
**A.** The AC50 was 6.05 µM (active).

**Q.** And the EC50 [8]?
**A.** The EC50 was > 75 µM (inconclusive).

**Q.** And the EC50 [18]?
**A.** The EC50 was > 133 µM (inactive).

**Q.** For `Cc1ccc2c(c1)C1CN(C)CCC1N2C(=O)Nc1cccc(Cl)c1` (stereo not given), which IC50 [3] is on record?
**A.** Its IC50 is 8.64 µM (not active).

**Q.** And the AC50 [19]?
**A.** Its AC50 is 39.8 µM (inconclusive).

**Q.** With `O=[N+]([O-])c1cc(C(F)(F)F)ccc1N1CCCNCC1` as the compound, how does the EC50 [12] read?
**A.** The EC50 was 0.841 µM (active).

**Q.** For `Cc1cc(C)n2nc(SCc3cccc(S(=O)(=O)N(C)C)c3)nc2n1`, which AC50 [20] is on record?
**A.** The AC50 was 8.55 µM (active).

**Q.** What about the AC50 [21] of the same compound?
**A.** The AC50 was 14 µM (active).

**Q.** What does the source list for `O=C(CCN1C(=O)/C(=C\c2cccc(Br)c2)SC1=S)NCCCN1CCOCC1`?
**A.** EC50 [4]: 93.6 µM (inconclusive); EC50 [5]: 1.4 µM (inconclusive); EC50 [6]: 4.75 µM (active); EC50 [8]: > 150 µM (not active); EC50 [18]: > 66.7 µM (inactive)

**Q.** For `CN(CC(=O)Nc1ccccc1Cl)C(=O)CCNC(=O)Nc1ccccc1`, which IC50 [13] is on record?
**A.** The IC50 was > 29.9 µM (inactive).

**Q.** And the EC50 [14]?
**A.** Its EC50 is > 29.9 µM (inactive).
